Assay results from PubChem BioAssay AID1259407 (Chemical Carcinogenesis Research Information System (CCRIS), 2018).
Calls of active or inactive are those of the source. No rule for the calls is given here.

Test system: CCRIS mutagenicity, Ames/micronucleus/aberration tests
Assay: CCRIS mutagenicity studies
[1] = Test System: AMES SALMONELLA TYPHIMURIUM, Strain/Indicator: TA98, Metabolic Activation: NONE, Method: PREINCUBATION
[2] = Test System: AMES SALMONELLA TYPHIMURIUM, Strain/Indicator: TA100, Metabolic Activation: NONE, Method: PREINCUBATION
[3] = Test System: AMES SALMONELLA TYPHIMURIUM, Strain/Indicator: TA1535, Metabolic Activation: NONE, Method: PREINCUBATION
[4] = Test System: AMES SALMONELLA TYPHIMURIUM, Strain/Indicator: TA1537, Metabolic Activation: NONE, Method: PREINCUBATION
[5] = Test System: AMES SALMONELLA TYPHIMURIUM, Strain/Indicator: TA98, Metabolic Activation: HAMSTER, LIVER, S-9, AROCLOR 1254 (10%), Method: PREINCUBATION
[6] = Test System: AMES SALMONELLA TYPHIMURIUM, Strain/Indicator: TA98, Metabolic Activation: RAT, LIVER, S-9, AROCLOR 1254 (10%), Method: PREINCUBATION
[7] = Test System: AMES SALMONELLA TYPHIMURIUM, Strain/Indicator: TA100, Metabolic Activation: HAMSTER, LIVER, S-9, AROCLOR 1254 (10%), Method: PREINCUBATION
[8] = Test System: AMES SALMONELLA TYPHIMURIUM, Strain/Indicator: TA100, Metabolic Activation: RAT, LIVER, S-9, AROCLOR 1254 (10%), Method: PREINCUBATION
[9] = Test System: AMES SALMONELLA TYPHIMURIUM, Strain/Indicator: TA1535, Metabolic Activation: HAMSTER, LIVER, S-9, AROCLOR 1254 (10%), Method: PREINCUBATION
[10] = Test System: AMES SALMONELLA TYPHIMURIUM, Strain/Indicator: TA1535, Metabolic Activation: RAT, LIVER, S-9, AROCLOR 1254 (10%), Method: PREINCUBATION
[11] = Test System: AMES SALMONELLA TYPHIMURIUM, Strain/Indicator: TA1537, Metabolic Activation: HAMSTER, LIVER, S-9, AROCLOR 1254 (10%), Method: PREINCUBATION
[12] = Test System: AMES SALMONELLA TYPHIMURIUM, Strain/Indicator: TA1537, Metabolic Activation: RAT, LIVER, S-9, AROCLOR 1254 (10%), Method: PREINCUBATION

Question: With COc1ccc(N=[N+]([O-])c2ccc(OC)cc2)cc1 as the compound, how does the mutagenic call (Test System: AMES SALMONELLA TYPHIMURIUM, Strain/Indicator: TA97, Metabolic Activation: HAMSTER, LIVER, S-9, AROCLOR 1254 (5%), Method: PREINCUBATION) read?
Answer: inactive; negative

Question: What about the mutagenic call (Test System: AMES SALMONELLA TYPHIMURIUM, Strain/Indicator: TA97, Metabolic Activation: HAMSTER, LIVER, S-9, AROCLOR 1254 (10 OR 30%), Method: PREINCUBATION) of the same compound?
Answer: active; positive

Question: And the mutagenic call (Test System: AMES SALMONELLA TYPHIMURIUM, Strain/Indicator: TA97, Metabolic Activation: NONE, Method: PREINCUBATION)?
Answer: inactive; negative

Question: And the mutagenic call (Test System: AMES SALMONELLA TYPHIMURIUM, Strain/Indicator: TA97, Metabolic Activation: RAT, LIVER, S-9, AROCLOR 1254 (5 OR 10%), Method: PREINCUBATION)?
Answer: active; positive

Question: And the mutagenic call (Test System: AMES SALMONELLA TYPHIMURIUM, Strain/Indicator: TA97, Metabolic Activation: RAT, LIVER, S-9, AROCLOR 1254 (30%), Method: PREINCUBATION)?
Answer: inactive; negative

Question: And the mutagenic call (Test System: AMES SALMONELLA TYPHIMURIUM, Strain/Indicator: TA98, Metabolic Activation: HAMSTER, LIVER, S-9, AROCLOR 1254 (30%), Method: PREINCUBATION)?
Answer: inactive; negative

Question: What about the mutagenic call [1] of the same compound?
Answer: inactive; negative

Question: What about the mutagenic call (Test System: AMES SALMONELLA TYPHIMURIUM, Strain/Indicator: TA98, Metabolic Activation: RAT, LIVER, S-9, AROCLOR 1254 (30%), Method: PREINCUBATION) of the same compound?
Answer: inactive; negative

Question: And the mutagenic call (Test System: AMES SALMONELLA TYPHIMURIUM, Strain/Indicator: TA100, Metabolic Activation: HAMSTER, LIVER, S-9, AROCLOR 1254 (30%), Method: PREINCUBATION)?
Answer: inactive; negative

Question: What about the mutagenic call [2] of the same compound?
Answer: inactive; negative

Question: And the mutagenic call (Test System: AMES SALMONELLA TYPHIMURIUM, Strain/Indicator: TA100, Metabolic Activation: RAT, LIVER, S-9, AROCLOR 1254 (30%), Method: PREINCUBATION)?
Answer: inactive; negative

Question: What about the mutagenic call (Test System: AMES SALMONELLA TYPHIMURIUM, Strain/Indicator: TA1535, Metabolic Activation: HAMSTER, LIVER, S-9, AROCLOR 1254 (30%), Method: PREINCUBATION) of the same compound?
Answer: inactive; negative

Question: What about the mutagenic call [3] of the same compound?
Answer: inactive; negative

Question: And the mutagenic call (Test System: AMES SALMONELLA TYPHIMURIUM, Strain/Indicator: TA1535, Metabolic Activation: RAT, LIVER, S-9, AROCLOR 1254 (30%), Method: PREINCUBATION)?
Answer: inactive; negative

Question: And the mutagenic call (Test System: AMES SALMONELLA TYPHIMURIUM, Strain/Indicator: TA1537, Metabolic Activation: HAMSTER, LIVER, S-9, AROCLOR 1254 (5 OR 10%), Method: PREINCUBATION)?
Answer: inactive; negative

Question: And the mutagenic call (Test System: AMES SALMONELLA TYPHIMURIUM, Strain/Indicator: TA1537, Metabolic Activation: HAMSTER, LIVER, S-9, AROCLOR 1254 (30%), Method: PREINCUBATION)?
Answer: active; positive

Question: What about the mutagenic call [4] of the same compound?
Answer: inactive; negative

Question: CCCCCCCC/C=C/CCCCCCCC(=O)OCCOCC(OCCO)C1OCC(OCCO)C1OCCO (centres undefined) was tested. Which mutagenic call [5] did it give?
Answer: inactive; negative

Question: What about the mutagenic call [1] of the same compound?
Answer: inactive; negative

Question: And the mutagenic call [6]?
Answer: inactive; negative

Question: And the mutagenic call [7]?
Answer: inactive; negative

Question: And the mutagenic call [2]?
Answer: inactive; negative

Question: What about the mutagenic call [8] of the same compound?
Answer: inactive; negative

Question: And the mutagenic call [9]?
Answer: inactive; negative

Question: And the mutagenic call [3]?
Answer: inactive; negative

Question: What about the mutagenic call [10] of the same compound?
Answer: inactive; negative

Question: And the mutagenic call [11]?
Answer: inactive; negative

Question: What about the mutagenic call [4] of the same compound?
Answer: inactive; negative

Question: What about the mutagenic call [12] of the same compound?
Answer: inactive; negative

Question: How did the mutagenic call [1] turn out when [O-][Cl+3]([O-])([O-])O was run?
Answer: inactive; negative

Question: What about the mutagenic call (Test System: AMES SALMONELLA TYPHIMURIUM, Strain/Indicator: TA98, Metabolic Activation: RAT LIVER S-9, PHENOBARBITAL AND BETA-NAPHTHOFLAVONE, Method: PREINCUBATION) of the same compound?
Answer: inactive; negative

Question: What about the mutagenic call [2] of the same compound?
Answer: inactive; negative

Question: And the mutagenic call (Test System: AMES SALMONELLA TYPHIMURIUM, Strain/Indicator: TA100, Metabolic Activation: RAT LIVER S-9, PHENOBARBITAL AND BETA-NAPHTHOFLAVONE, Method: PREINCUBATION)?
Answer: inactive; negative

Question: And the mutagenic call [3]?
Answer: inactive; negative

Question: What about the mutagenic call (Test System: AMES SALMONELLA TYPHIMURIUM, Strain/Indicator: TA1535, Metabolic Activation: RAT LIVER S-9, PHENOBARBITAL AND BETA-NAPHTHOFLAVONE, Method: PREINCUBATION) of the same compound?
Answer: inactive; negative

Question: What about the mutagenic call [4] of the same compound?
Answer: inactive; negative

Question: And the mutagenic call (Test System: AMES SALMONELLA TYPHIMURIUM, Strain/Indicator: TA1537, Metabolic Activation: RAT LIVER S-9, PHENOBARBITAL AND BETA-NAPHTHOFLAVONE, Method: PREINCUBATION)?
Answer: inactive; negative

Question: And the mutagenic call (Test System: AMES SALMONELLA TYPHIMURIUM, Strain/Indicator: TA1538, Metabolic Activation: NONE, Method: PREINCUBATION)?
Answer: inactive; negative

Question: What about the mutagenic call (Test System: AMES SALMONELLA TYPHIMURIUM, Strain/Indicator: TA1538, Metabolic Activation: RAT LIVER S-9, PHENOBARBITAL AND BETA-NAPHTHOFLAVONE, Method: PREINCUBATION) of the same compound?
Answer: inactive; negative

Question: And the mutagenic call (Test System: E.COLI, Strain/Indicator: WP2UVRA, Metabolic Activation: NONE, Method: PREINCUBATION)?
Answer: inactive; negative

Question: And the mutagenic call (Test System: E.COLI, Strain/Indicator: WP2UVRA, Metabolic Activation: RAT LIVER S-9, PHENOBARBITAL AND BETA-NAPHTHOFLAVONE, Method: PREINCUBATION)?
Answer: inactive; negative

Question: For CCCCNCC, which mutagenic call [5] is on record?
Answer: inactive; negative

Question: What about the mutagenic call [1] of the same compound?
Answer: inactive; negative

Question: What about the mutagenic call [6] of the same compound?
Answer: inactive; negative

Question: What about the mutagenic call [7] of the same compound?
Answer: inactive; negative

Question: What about the mutagenic call [2] of the same compound?
Answer: inactive; negative

Question: What about the mutagenic call [8] of the same compound?
Answer: inactive; negative

Question: What about the mutagenic call [9] of the same compound?
Answer: inactive; negative

Question: What about the mutagenic call [3] of the same compound?
Answer: inactive; negative

Question: What about the mutagenic call [10] of the same compound?
Answer: inactive; negative

Question: What about the mutagenic call [11] of the same compound?
Answer: inactive; negative

Question: What about the mutagenic call [4] of the same compound?
Answer: inactive; negative

Question: What about the mutagenic call [12] of the same compound?
Answer: inactive; negative

Question: How did the mutagenic call (Test System: AMES SALMONELLA TYPHIMURIUM, Strain/Indicator: TA1538, Metabolic Activation: RAT, LIVER, S-9, AROCLOR 1254, Method: STANDARD PLATE) turn out when Nc1nc(-c2cccnc2)cs1 was run?
Answer: inactive; negative
